# Columns and labels:
# [1] = type: physicochemical
# Description: Several degradation conditions were compared (i.e., organic vs. aqueous solutions in the presence or absence of acid and reducing agents) to determine the most favorable conditions (FIG. 11).
# UV-Vis degradation. […] The samples were diluted to a final volume of 1 mL in H2O. A UV-Vis spectrum was taken from each sample with a Varian Cary 50 UV-Visible spectrophotometer (background correction, medium scan rate, 600-200 nm).
# cardiac tissue proteins = test: Surfactant-aided protein extraction from insoluble cardiac tissue pellet, SDS-PAGE and protein assay; conditions: 0.5% surfactant in 25 mM NH4HCO3; SDS-PAGE and Bradford protein assay (FIG. 16)
# Description: Data presented were based on three independent experiments (n=3). Error bars represent standard error of the mean.
# Protein extraction from cardiac tissue. The frozen tissue samples (˜500 mg) were cut into small pieces and washed with PBS buffer containing protease inhibitors and reducing agent (5 mM DTT, 1 mM PMSF, 1× protease inhibitor cocktail). […] The homogenate was centrifuged at 211,750×g using Beckman Ultracentrifuge and a Ti-80 rotor for 1 h. The supernatant after the first HEPES extraction was removed and saved as “E1” extraction. The HEPES extraction was repeated on the resulting pellet and saved as “E2”. After the second HEPES extraction, the tissue pellet was suspended in 25 mM NH4HCO3 and evenly divided into smaller aliquots. In one aliquot, 25 mM NH4HCO3 buffer with no surfactant (NS) was used in a 1:1 ratio (homogenate:buffer) and labeled as “E3”. In the other aliquots, surfactants (1% in 25 mM NH4HCO3) were individually added to the other aliquots in a 1:1 ratio (homogenate:surfactant) and labeled as “E3” following incubation and centrifugation.
Molecule,degradation time upon UV irradiation [1],protein solubilization ability (cardiac tissue proteins)
4-hexylphenylazosulfonate,30 to 150 s,–
CCCCCCCCCCC(OC(=O)NCCCS(=O)(=O)[O-])c1ccco1.[Na+] (stereo not drawn) [PM],–,drastically better protein solubilization ability
CCCCCCCCCCCC1(C)OCC(COCCCS(=O)(=O)[O-])O1.[Na+] (stereo not drawn) [RG],–,drastically better protein solubilization ability
